Structures can show the parent of a compound that is named as a salt. Where two headings read alike, the source gives them in different places.
Tested on: murine neural precursor cells (neurosphere cultures)
Assay: HTS of LOPAC library against secondary neurosphere cultures, MTT proliferation assay at 3 μM, day 7 (z score, P value)
Assay type: cell-based, mouse
[1] = LOPAC screen, neurosphere MTT proliferation, 3 μM, day 7
[2] = yes/no: significantly inhibited neurosphere proliferation (P<0.01) in primary screen
[3] = LOPAC primary screen, neurosphere MTT proliferation, 3 μM, day 7
[4] = yes/no: significantly inhibited neurosphere proliferation (P<0.01) in the primary screen
[5] = yes/no: significantly inhibited neurosphere proliferation in primary screen
[6] = yes = significantly inhibited neurosphere proliferation (P<0.01) in the primary screen
[7] = yes/no: significantly inhibited neurosphere proliferation in the primary screen
[8] = LOPAC library screen, 3 μM, MTT, neurosphere cultures
[9] = primary LOPAC screen, 3 μM, MTT, neurosphere proliferation
[10] = LOPAC library screen at 3 μM, secondary neurosphere cultures, MTT

CCCCOc1cc(CC2CNC(=O)N2)ccc1OC (racemic) [Ro 20-1724]
Z Score: 0.5874
Z score [1]: 0.587
Activity [2]: no

COc1ccc(OC)c(C(O)C(C)N)c1 (stereo not shown) [Methoxamine hydrochloride]
Z Score (LOPAC library screen, 3 μM, MTT, secondary neurosphere cultures, day 7): −3.255
Z score [3]: −3.255
Activity [4]: yes

C[N+](C)(C)CCOC(=O)CBr.[Br-] [Bromoacetylcholine bromide]
Z Score: −0.3547
Z score [1]: −0.355
Activity [2]: no

COC1(C2=NCCN2)COc2ccccc2O1.Cl (stereo not shown) [RX 821002 hydrochloride]
Z Score: 0.249
Z score [3]: 0.249
Activity [5]: no

C[N+](C)(C)CCOC(=O)CCC(=O)OCC[N+](C)(C)C [Succinylcholine chloride]
Z Score: −1.93
Z score [3]: −1.930
Activity [5]: no

CC[C@@H](CO)NC(=O)[C@@H]1C=C2c3cccc4c3c(cn4C)C[C@H]2N(C)C1 [Methysergide maleate]
Z Score: −0.01983
Z score [3]: −0.020
Activity [6]: no

Br.CN1CCc2cc(O)c(O)cc2C(c2ccccc2)C1 (stereo not shown) [SKF 75670 hydrobromide]
Z Score: −0.1421
Z score [3]: −0.142
Activity [5]: no

C[C@H](O)C(=O)C1=Nc2c(nc(N)[nH]c2=O)NC1 [Sepiapterin]
Z Score (168 h, 3 µM): 1.795
Z score (168 h, 3 µM): 1.795
Activity [7]: no

CCC(C)N(C)C(=O)c1cc2ccccc2c(-c2ccccc2Cl)n1 (stereo not shown) [PK 11195]
Z Score (168 h, 3 µM): −0.4676
Z score (168 h, 3 µM): −0.468
Activity [2]: no

(−)-Naproxen sodium
Z Score [8]: 0.6024
Z score [3]: 0.602
Activity [6]: no

CN1[C@@H]2CC[C@H]1CC(OC(=O)c1c[nH]c3ccccc13)C2.Cl (stereo partly shown) [3-Tropanyl-indole-3-carboxylate hydrochloride]
Z Score: −1.528
Z score [9]: −1.528
Activity [7]: no

CN(C)CCC=C1c2ccccc2CCc2ccccc21 [Amitriptyline hydrochloride]
Z Score (168 h, 3 µM): 0.7066
Z score (168 h, 3 µM): 0.707
Activity [4]: no

Cl.OCc1c[nH]cn1 [4-Imidazolemethanol hydrochloride]
Z Score: −2.077
Z score [3]: −2.077
Activity [2]: no

Cl.NC[C@@H]1O[C@H](C23CC4CC(CC(C4)C2)C3)Cc2c1ccc(O)c2O [A-77636 hydrochloride]
Z Score: 1.44
Z score [9]: 1.440
Activity [7]: no

CCCN1CCC[C@@H](c2cccc(C#N)c2)C1.Cl [S(−)-DS 121 hydrochloride]
Z Score: −0.0998
Z score [1]: −0.100
Activity [2]: no

NCC(CC(=O)O)c1ccc(Cl)cc1 (stereo not shown) [(B1)-Baclofen]
Z Score: −1.069

CNCCCN1c2ccccc2CCc2ccccc21 [Desipramine hydrochloride]
Z Score [8]: 0.1226
Z score [1]: 0.123
Activity [2]: no

O=S(=O)(O)C1CCNCC1 [Piperidine-4-sulphonic acid]
Z Score (168 h, 3 µM): −0.4238
Z score (168 h, 3 µM): −0.424
Activity [5]: no

c1ccc2cc(-c3ncc[nH]3)ccc2c1 [Benazoline oxalate]
Z Score [10]: −0.3348
Z score [1]: −0.335
Activity [2]: no

CC(=N)NCCCC[C@H](N)C(=O)O.Cl [L-N6-(1-Iminoethyl)lysine hydrochloride]
Z Score: −0.3809
Z score [3]: −0.381
Activity [2]: no

CCN(CC)C(=S)SSC(=S)N(CC)CC [Tetraethylthiuram disulfide]
Z Score (LOPAC library screen at 3 μM, MTT, secondary neurosphere cultures, screened in singlets): 2.347
Z score [9]: 2.347
Activity [7]: no

CNCC[C@@H](Oc1ccccc1C)c1ccccc1 [Tomoxetine]
Activity: no
Z Score [8]: 0.1672
Z score [9]: 0.167

O=c1c(-c2ccc(O)cc2)coc2cc(O)cc(O)c12 [Genistein]
Z Score [10]: −0.4689
Z score [3]: −0.469
Activity [4]: no

Cn1cc(C2=C(c3ccc(Cl)cc3Cl)C(=O)NC2=O)c2ccccc21 [SB 216763]
Z Score: −2.542
Z score [3]: −2.542
Activity [6]: yes

COc1ccccc1N1CCN(CCCCNC(=O)c2ccc3ccccc3c2)CC1 [BP 897]
Z Score (168 h, 3 µM): −1.715
Z score (168 h, 3 µM): −1.715
Activity [2]: no

Iproniazid phosphate
Z Score [10]: −0.2492
Z score [3]: −0.249
Activity [2]: no

CN1CCN2c3ccccc3Cc3ccccc3C2C1 (stereo not shown) [Mianserin hydrochloride]
Activity: no
Z Score [8]: 0.9746
Z score [3]: 0.975

CCCCCC(O)CCCC(=O)O.[Na] (stereo not shown) [5-hydroxydecanoic acid sodium]
Z Score (168 h, 3 µM): 0.2332
Z score (168 h, 3 µM): 0.233
Activity [2]: no

Source: patent US8058243B2, “Method for treating a brain cancer with ifenprodil” (HSC Research and Development Limited Partnership, priority 2006, dated 2011)
